Source: patent publication US20260132125A1, “PESTICIDALLY ACTIVE FUSED BICYCLIC HETEROAROMATIC COMPOUNDS” (priority 2022, published 2026)

What was measured:
Assay type in all cases: in vivo
Chilo suppressalis = assay: Example B1: activity against Chilo suppressalis (striped rice stemborer), artificial diet; conditions: 144 h, 200 ppm, L2 larvae, 6 days after infestation, read-out: control (at least one of mortality, anti-feedant effect, growth inhibition)
Outline: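 Artificial diet treated with aqueous dilutions of DMSO stocks (10'000 ppm stock), dried, then infested with 6-8 L2 larvae per well. Mortality, anti-feeding and growth inhibition scored against untreated samples 6 days after infestation. Control counted when any category exceeds untreated.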

Diabrotica balteata = assay: Example B2: activity against Diabrotica balteata (corn root worm), maize sprouts; conditions: 96 h, L2 larvae, 4 days after infestation, read-out: effect in at least one of the two categories (mortality or growth inhibition)
Outline: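 At 200 ppm, test solutions diluted in water from 10′000 ppm DMSO stocks were spray-applied to maize sprouts set on agar. Once dry, each well received 6–10 second-instar larvae. Four days later, mortality and growth inhibition were compared with untreated controls.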

Plutella xylostella = assay: Example B5: activity against Plutella xylostella (diamond back moth), artificial diet, eggs; conditions: 192 h, 8 days after infestation, read-out: effect in at least one of the two categories (mortality or growth inhibition)
Outline: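 Scoring at 8 days post-infestation compared mortality and growth inhibition with untreated controls, on diet treated at 200 ppm with water-diluted DMSO stock solutions. Diamondback moth eggs were placed on the dried diet in 24-well plates.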

Spodoptera littoralis = assay: Example B6: activity against Spodoptera littoralis (Egyptian cotton leaf worm), cotton leaf discs; conditions: foliar, 72 h, 200 ppm, L1 larvae, 3 days after infestation, read-out: control (at least one of mortality, anti-feedant effect, growth inhibition)
Outline: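 Spray application onto agar-supported cotton leaf discs used aqueous solutions derived from 10′000 ppm DMSO stocks. Once dry, discs were infested with five L1 larvae and evaluated after 3 days for mortality, anti-feeding and growth inhibition relative to untreated controls.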

Euschistus heros = assay: Example B3: activity against Euschistus heros (neotropical brown stink bug), soybean leaves; conditions: 120 h, N2 nymphs, 5 days after infestation, read-out: effect in at least one of the two categories (mortality or growth inhibition)
Protocol: Soybean leaves on agar in 24-well microtiter plates were sprayed with aqueous test solutions prepared from 10′000 ppm DMSO stock solutions. After drying the leaves were infested with N2 nymphs. The samples were assessed for mortality and growth inhibition in comparison to untreated samples 5 days after infestation. The following compounds gave an effect of at least 80% in at least one of the two categories (mortality or growth inhibition) at an application rate of 200 ppm: […]

Myzus persicae = assay: Example B4: activity against Myzus persicae (green peach aphid), intrinsic activity; conditions: 120 h, test rate 12 ppm, 5 days after infestation
Protocol: Test compounds prepared from 10′000 ppm DMSO stock solutions were applied by pipette into 24-well microtiter plates and mixed with sucrose solution. The plates were closed with a stretched Parafilm. A plastic stencil with 24 holes was placed onto the plate and infested pea seedlings were placed directly on the Parafilm. The infested plate was closed with a gel blotting paper and another plastic stencil and then turned upside down. The samples were assessed for mortality 5 days after infestation.

Pseudoplusia includens = assay: Example B9: Pseudoplusia includens (soybean looper), larvicide, feeding/contact, soybean plants; conditions: Chrysodeixis includens, 120 h; 50 ppm; L2 larvae; 5 days after infestation; read-out: effect in at least one of the two categories (mortality or growth inhibition)
Protocol: Soybean plants were treated in a spray chamber, cut off and placed into petri dishes containing wet filter paper. 1d after application leaves were infested with 5 L2 larvae and covered with a fabric filter and plastic lids. 5 days after infestation the samples were assessed for mortality and growth inhibition. The following compounds gave an effect of at least 80% in at least one of the two categories (mortality or growth inhibition) at an application rate of 50 ppm: […]

CNC(=O)c1cnc(-n2ncnc2[C@H](C)Nc2ncnc3c(C(F)(F)F)cc(Cl)cc23)s1 [Compound P7, 2-[5-[(1S)-1-[[6-chloro-8-(trifluoromethyl)quinazolin-4-yl]amino]ethyl]-1,2,4-triazol-1-yl]-N-methyl-thiazole-5-carboxamide]
≥ 80%: percent control (mortality, anti-feedant effect or growth inhibition) at 200 ppm (Chilo suppressalis) | percent effect (mortality or growth inhibition) at 200 ppm (Diabrotica balteata) | percent effect (mortality or growth inhibition) at 200 ppm (Plutella xylostella) | percent control (mortality, anti-feedant effect or growth inhibition) at 200 ppm (Spodoptera littoralis) | percent effect (mortality or growth inhibition) at 200 ppm (Euschistus heros)

CNC(=O)c1cc(-n2ncnc2[C@H](C)N(C)c2ncnc3c(Cl)cc(C(F)(F)F)cc23)ncn1 [Compound P15, 6-[5-[(1S)-1-[[8-chloro-6-(trifluoromethyl)quinazolin-4-yl]-methyl-amino]ethyl]-1,2,4-triazol-1-yl]-N-methyl-pyrimidine-4-carboxamide]
≥ 80%: mortality at 12 ppm (Myzus persicae) | percent effect (mortality or growth inhibition) at 50 ppm (Pseudoplusia includens) | percent control (mortality, anti-feedant effect or growth inhibition) at 200 ppm (Chilo suppressalis) | percent effect (mortality or growth inhibition) at 200 ppm (Diabrotica balteata) | percent effect (mortality or growth inhibition) at 200 ppm (Plutella xylostella) | percent control (mortality, anti-feedant effect or growth inhibition) at 200 ppm (Spodoptera littoralis) | percent effect (mortality or growth inhibition) at 200 ppm (Euschistus heros)

CNC(=O)c1cc(-n2ncnc2[C@H](C)Nc2ncnc3c(Cl)cc(C(F)(F)F)cc23)ncn1 [Compound P16, 6-[5-[(1S)-1-[[8-chloro-6-(trifluoromethyl)quinazolin-4-yl]amino]ethyl]-1,2,4-triazol-1-yl]-N-methyl-pyrimidine-4-carboxamide]
≥ 80%: mortality at 12 ppm (Myzus persicae) | percent effect (mortality or growth inhibition) at 50 ppm (Pseudoplusia includens) | percent control (mortality, anti-feedant effect or growth inhibition) at 200 ppm (Chilo suppressalis) | percent effect (mortality or growth inhibition) at 200 ppm (Diabrotica balteata) | percent effect (mortality or growth inhibition) at 200 ppm (Plutella xylostella) | percent control (mortality, anti-feedant effect or growth inhibition) at 200 ppm (Spodoptera littoralis)

CNC(=O)c1cc(-n2ncnc2[C@H](C)N(C)c2ncnc3c(I)cc(Cl)cc23)ncn1 [Compound P33, 6-[5-[(1S)-1-[(6-chloro-8-iodo-quinazolin-4-yl)-methyl-amino]ethyl]-1,2,4-triazol-1-yl]-N-methyl-pyrimidine-4-carboxamide]
≥ 80%: mortality at 12 ppm (Myzus persicae) | percent effect (mortality or growth inhibition) at 50 ppm (Pseudoplusia includens) | percent control (mortality, anti-feedant effect or growth inhibition) at 200 ppm (Chilo suppressalis) | percent effect (mortality or growth inhibition) at 200 ppm (Diabrotica balteata) | percent effect (mortality or growth inhibition) at 200 ppm (Plutella xylostella) | percent control (mortality, anti-feedant effect or growth inhibition) at 200 ppm (Spodoptera littoralis)

C[C@H](Nc1ncnc2c(Cl)cc(C(F)(F)F)cc12)c1ncnn1-c1ncc(C(N)=O)s1 [Compound P35, 2-[5-[(1S)-1-[[8-chloro-6-(trifluoromethyl)quinazolin-4-yl]amino]ethyl]-1,2,4-triazol-1-yl]thiazole-5-carboxamide]
≥ 80%: mortality at 12 ppm (Myzus persicae) | percent control (mortality, anti-feedant effect or growth inhibition) at 200 ppm (Chilo suppressalis) | percent effect (mortality or growth inhibition) at 200 ppm (Diabrotica balteata) | percent effect (mortality or growth inhibition) at 200 ppm (Plutella xylostella) | percent control (mortality, anti-feedant effect or growth inhibition) at 200 ppm (Spodoptera littoralis) | percent effect (mortality or growth inhibition) at 200 ppm (Euschistus heros)

C[C@@H](c1ncnn1-c1cc(C(N)=O)ncn1)N(C)c1ncnc2c(I)cc(Cl)cc12 [Compound P47, 6-[5-[(1S)-1-[(6-chloro-8-iodo-quinazolin-4-yl)-methyl-amino]ethyl]-1,2,4-triazol-1-yl]pyrimidine-4-carboxamide]
≥ 80%: mortality at 12 ppm (Myzus persicae) | percent effect (mortality or growth inhibition) at 50 ppm (Pseudoplusia includens) | percent control (mortality, anti-feedant effect or growth inhibition) at 200 ppm (Chilo suppressalis) | percent effect (mortality or growth inhibition) at 200 ppm (Diabrotica balteata) | percent effect (mortality or growth inhibition) at 200 ppm (Plutella xylostella) | percent control (mortality, anti-feedant effect or growth inhibition) at 200 ppm (Spodoptera littoralis) | percent effect (mortality or growth inhibition) at 200 ppm (Euschistus heros)

C[C@@H](c1ncnn1-c1cc(C(N)=O)ncn1)N(C)c1ncnc2c(Br)cc(Br)cc12 [Compound P48, 6-[5-[(1S)-1-[(6,8-dibromoquinazolin-4-yl)-methyl-amino]ethyl]-1,2,4-triazol-1-yl]pyrimidine-4-carboxamide]
≥ 80%: mortality at 12 ppm (Myzus persicae) | percent control (mortality, anti-feedant effect or growth inhibition) at 200 ppm (Chilo suppressalis) | percent effect (mortality or growth inhibition) at 200 ppm (Diabrotica balteata) | percent effect (mortality or growth inhibition) at 200 ppm (Plutella xylostella) | percent control (mortality, anti-feedant effect or growth inhibition) at 200 ppm (Spodoptera littoralis) | percent effect (mortality or growth inhibition) at 200 ppm (Euschistus heros)

C[C@@H](c1ncnn1-c1cc(C(N)=O)ncn1)N(C)c1ncnc2c(Cl)cc(C(F)(F)F)cc12 [Compound P51, 6-[5-[(1S)-1-[[8-chloro-6-(trifluoromethyl)quinazolin-4-yl]-methyl-amino]ethyl]-1,2,4-triazol-1-yl]pyrimidine-4-carboxamide]
≥ 80%: mortality at 12 ppm (Myzus persicae) | percent control (mortality, anti-feedant effect or growth inhibition) at 200 ppm (Chilo suppressalis) | percent effect (mortality or growth inhibition) at 200 ppm (Diabrotica balteata) | percent effect (mortality or growth inhibition) at 200 ppm (Plutella xylostella) | percent control (mortality, anti-feedant effect or growth inhibition) at 200 ppm (Spodoptera littoralis) | percent effect (mortality or growth inhibition) at 200 ppm (Euschistus heros)

CNC(=O)c1cc(-n2ncnc2[C@H](C)Nc2ncnc3c(S(=O)(=O)C(F)(F)F)cc(Cl)cc23)ncn1 [Compound P60, 6-[5-[(1S)-1-[[6-chloro-8-(trifluoromethylsulfonyl)quinazolin-4-yl]amino]ethyl]-1,2,4-triazol-1-yl]-N-methyl-pyrimidine-4-carboxamide]
≥ 80%: mortality at 12 ppm (Myzus persicae) | percent effect (mortality or growth inhibition) at 50 ppm (Pseudoplusia includens) | percent control (mortality, anti-feedant effect or growth inhibition) at 200 ppm (Chilo suppressalis) | percent effect (mortality or growth inhibition) at 200 ppm (Diabrotica balteata) | percent effect (mortality or growth inhibition) at 200 ppm (Plutella xylostella) | percent control (mortality, anti-feedant effect or growth inhibition) at 200 ppm (Spodoptera littoralis) | percent effect (mortality or growth inhibition) at 200 ppm (Euschistus heros)

C[C@H](Nc1ncnc2c(C(F)(F)F)cc(Cl)cc12)c1ncnn1-c1cc(C(=O)N(C)CC#N)ncn1 [Compound P62, 6-[5-[(1S)-1-[[6-chloro-8-(trifluoromethyl)quinazolin-4-yl]amino]ethyl]-1,2,4-triazol-1-yl]-N-(cyanomethyl)-N-methyl-pyrimidine-4-carboxamide]
≥ 80%: mortality at 12 ppm (Myzus persicae) | percent effect (mortality or growth inhibition) at 50 ppm (Pseudoplusia includens) | percent control (mortality, anti-feedant effect or growth inhibition) at 200 ppm (Chilo suppressalis) | percent effect (mortality or growth inhibition) at 200 ppm (Diabrotica balteata) | percent effect (mortality or growth inhibition) at 200 ppm (Plutella xylostella) | percent control (mortality, anti-feedant effect or growth inhibition) at 200 ppm (Spodoptera littoralis)

C[C@H](Nc1ncnc2c(C(F)(F)F)cc(Cl)cc12)c1ncnn1-c1ncc(C(N)=O)cn1 [Compound P68, 2-[5-[(1S)-1-[[6-chloro-8-(trifluoromethyl)quinazolin-4-yl]amino]ethyl]-1,2,4-triazol-1-yl]pyrimidine-5-carboxamide]
≥ 80%: percent effect (mortality or growth inhibition) at 200 ppm (Euschistus heros)

C[C@H](Nc1ncnc2c(Br)cc(Br)cc12)c1ncnn1-c1cnc(C(N)=O)cn1 [Compound P74, 5-[5-[(1S)-1-[(6,8-dibromoquinazolin-4-yl)amino]ethyl]-1,2,4-triazol-1-yl]pyrazine-2-carboxamide]
≥ 80%: percent effect (mortality or growth inhibition) at 200 ppm (Plutella xylostella) | percent control (mortality, anti-feedant effect or growth inhibition) at 200 ppm (Spodoptera littoralis) | percent effect (mortality or growth inhibition) at 200 ppm (Euschistus heros)

C[C@H](Nc1ncnc2c(I)cc(Cl)cc12)c1ncnn1-c1cnc(C(N)=O)cn1 [Compound P75, 5-[5-[(1S)-1-[(6-chloro-8-iodo-quinazolin-4-yl)amino]ethyl]-1,2,4-triazol-1-yl]pyrazine-2-carboxamide]
≥ 80%: mortality at 12 ppm (Myzus persicae) | percent control (mortality, anti-feedant effect or growth inhibition) at 200 ppm (Chilo suppressalis) | percent effect (mortality or growth inhibition) at 200 ppm (Diabrotica balteata) | percent effect (mortality or growth inhibition) at 200 ppm (Plutella xylostella) | percent control (mortality, anti-feedant effect or growth inhibition) at 200 ppm (Spodoptera littoralis) | percent effect (mortality or growth inhibition) at 200 ppm (Euschistus heros)
